From patent US20250082633A1, “COMPOUNDS AND METHODS FOR MODULATING SPLICING” (REMIX THERAPEUTICS INC., priority 2021, published 2025)
Read-outs that look alike come from different tables or passages of the source.

Assays:
Type in all cases: cell-based
K562 cells = experiment: Cell Titer Glo 2.0 cell viability assay; conditions: Homo sapiens, 500 cells/well, 72 hours
Experimental: Compounds described herein were screened for toxicity in K562 (human chronic myelogenous leukemia) and SH-SY5Y (human neuroblastoma) cells using a Cell Titer Glo 2.0 assay. • Promega CellTiter-Glo® 2.0 Cell Viability Assay (cat #G9241) • Corning 384-well TC-treated microplates (cat #3570) Cells were plated at 500 cells/well (K562 cells) in 45 μL of IMDM supplemented with 10% FBS in a 384-well opaque plate. Wells containing only medium were used as a blank control. Test compounds (e.g., compounds of Formula (I), (II), or (III)) were first serially diluted in DMSO then diluted 1:100 with IMDM+10% FBS. The final concentration of DMSO was 0.1% in each well. The cells were incubated for 72 hours at 37° C. and 5% CO2 before assaying with Cell Titer Glo 2.0 reagent.

Target C = experiment: RT-qPCR splicing assay, gene panel, Target C canonical junction (CJ) mRNA; conditions: Homo sapiens; decrease in CJ mRNA levels; larger panel of genes; Table 3; read-out: Target C CJ IC50
Experimental: (§1) Compounds described herein were used to modulate RNA transcript abundance in cells. The expression of a target mRNA was measured by detecting the formation of an exon-exon junction in the canonical transcript (CJ). A compound mediated exon-inclusion event was detected by observing an increase in formation of a new junction with an alternative exon (AJ). Real-time qPCR assays were used to detect these splicing switches and interrogate the potency of various compounds towards different target genes. A high-throughput real time quantitative PCR (RT-qPCR) assay was developed to measure these two isoforms of the mRNA (CJ and AJ) for exemplary genes, such as HTT, SMN2, and MYB, together with a control housekeeping gene, GAPDH or GUSB or PPIA, used for normalization. Briefly, the A673 or K562 cell line was treated with various compounds described herein (e.g., compounds of Formula (I)). After treatment, the levels of the HTT, MYB, or SMN2 mRNA targets were determined from each sample of cell lysate by cDNA synthesis followed by qPCR.
(§2) The A673 cell line was cultured in DMEM with 10% FBS. Cells were diluted with full growth media and plated in a 96-well plate (15,000 cells in 100 ul media per well). The plate was incubated at 37° C. with 5% CO2 for 24 hours to allow cells to adhere. An 11-point 3-fold serial dilution of the compounds was made in DMSO then diluted in media in an intermediate plate. Compounds were transferred from the intermediate plate to the cell plate with the top dose at a final concentration of 10 uM in the well. Final DMSO concentration was kept at or below 0.25%. The cell plate was returned to the incubator at 37° C. with 5% CO2 for an additional 24 hours.
(§3) The K562 cell line was cultured in IMDM with 10% FBS. For K562, cells were diluted with full growth media and plated in either a 96-well plate (50,000 cells in 50 uL media per well) or a 384-well plate (8,000-40,000 cells in 45 uL media per well). An 11-point 3-fold serial dilution of the compounds were made in DMSO then diluted in media in an intermediate plate. Compound was transferred from the intermediate plate to the cell plate with the top dose at a final concentration of 10 uM in the well. Final DMSO concentration was kept at or below 0.25%. Final volume was 100 uL for 96-well plate and 50 uL for 384-well plate. The cell plate was then placed in an incubator at 37° C. with 5% CO2 for 24 hours.
(§4) The cells were then gently washed with 50 uL-100 uL cold PBS before proceeding to addition of lysis buffer. 30 uL-50 μL of room temperature lysis buffer with DNAse I (and optionally RNAsin) was added to each well. Cells were shaken/mixed thoroughly at room temperature for 5-10 minutes for lysis to take place and then 3 uL-5 μL of room temperature stop solution was added and wells were shaken/mixed again. After 2-5 minutes, the cell lysate plate was transferred to ice for RT-qPCR reaction setup. The lysates could also be frozen at −80° C. for later use.
(§5) In some cases, a direct lysis buffer was used. An appropriate volume of 3× lysis buffer (10 mM Tris, 150 mM NaCl, 1.5%-2.5% Igepal and 0.1-1 U/uL RNAsin, pH 7.4) was directly added to either K562 or A673 cells in media and mixed by pipetting 3 times. The plates were then incubated at room temperature with shaking/rocking for 20-50 minutes to allow for lysis to take place. After this time, the cell lysate plate was transferred to ice to set up for the RT-qPCR reactions. The lysates could also be frozen at −80° C. for later use.
(§6) To set up 10 uL RT-qPCR reactions, cell lysates were transferred to 384-well qPCR plates containing the master mix according to the table below. The plates were sealed, gently vortexed, and spun down before the run. The volumes were adjusted accordingly in some instances where the reaction was carried in 20 μL. The table below summarizes the components of the RT-qPCR reactions:
(§7) The RT-qPCR reaction was performed using a QuantStudio (ThermoFisher) under the following fast cycling conditions. […]

HTT mRNA = experiment: RT-qPCR splicing assay, HTT canonical (CJ) and alternative (AJ) junction mRNA; conditions: Homo sapiens; for IC50: read-out: HTT CJ IC50; for AC50: increase in alternative junction mRNA, read-out: HTT AJ AC50
Experimental: as §1
(§8) • Cells-to-CT 1-step kit: ThermoFisher A25602, Cells-to-CT lysis reagent: ThermoFisher 4391851C, TaqMan™ Fast Virus 1-Step Master Mix: ThermoFisher 4444436 • GAPDH: VIC-PL, ThermoFisher 4326317E (Assay: Hs99999905_m1)—used for K562/suspension cell lines • GUSB: VIC-PL, ThermoFisher 4326320E (Assay: Hs99999908_m1)—used for K562/suspension cell lines • PPIA: VIC-PL, ThermoFisher 4326316E (Assay: Hs99999904_m1)—used for A673/adherent cell lines
as §2, §3, §4
(§9) In some cases, a direct lysis buffer was used. An appropriate volume of 3× lysis buffer (10 mM Tris, 150 mM NaCl, 1.5%-2.5% Igepal and 0.1-1 U/uL RNAsin, pH 7.4) was directly added to either K562 or A673 cells in media and mixed by pipetting 3 times. The plates were then incubated at room temperature with shaking/rocking for 20-50 minutes to allow for lysis to take place. After this time, the cell lysate plate was transferred to ice to set up for the RT-qPCR reactions. The lysates could also be frozen at −80° C. for later use. […]

SMN2 mRNA = experiment: RT-qPCR splicing assay, gene panel, SMN2 canonical junction (CJ) mRNA; conditions: Homo sapiens; decrease in CJ mRNA levels; larger panel of genes; Table 3; read-out: SMN2 CJ IC50
Experimental: as §1, §2, §3, §4, §5, §6, §7

MYB mRNA = experiment: RT-qPCR splicing assay, MYB canonical (CJ) and alternative (AJ) junction mRNA; conditions: Homo sapiens; for IC50: read-out: MYB CJ IC50; for AC50: increase in alternative junction mRNA, read-out: MYB AJ AC50
Experimental: as §1, §8, §2, §3, §4, §9

[1] = decrease in CJ mRNA levels, larger panel of genes, Table 3
[2] = decrease in canonical junction mRNA, A673 or K562 cells, 24 hours treatment, Table 2
[3] = A673 or K562 cells, 24 hours treatment, Table 2

Structure (SMILES)	GI50 (K562 cells) [µM]	IC50 (Target C) [µM]	IC50 (HTT mRNA; [1]) [µM]	IC50 (HTT mRNA; [2]) [µM]	AC50 (HTT mRNA; [3]) [µM]	IC50 (SMN2 mRNA) [µM]	IC50 (MYB mRNA; [1]) [µM]	IC50 (MYB mRNA; [2]) [µM]	AC50 (MYB mRNA; [3]) [µM]
Cc1cn2nc(-c3cc(F)c4nn(C5CCNC6(CC6)C5)cc4c3)cc2c(C)n1 (stereo in doubt) [Compound 205, 2-[2-[(7S)-4-azaspiro[2.5]octan-7-yl]-7-fluoro-indazol-5-yl]-4,6-dimethyl-pyrazolo[1,5-a]pyrazine]	1 to 10	1 to 10	0.1 to 1	0.1 to 1	0.1 to 1	0.1 to 1	1 to 10	1 to 10	0.1 to 1
Cc1cn2nc(-c3cc(F)c4nn(C5CCNC6(CC6)C5)cc4c3)cc2c(C)n1 (stereo not drawn) [Compound 204, 2-[2-(4-azaspiro[2.5]octan-7-yl)-7-fluoro-indazol-5-yl]-4,6-dimethyl-pyrazolo[1,5-a]pyrazine]	1 to 10	0.1 to 1	0.1 to 1	0.1 to 1	0.1 to 1	0.1 to 1	1 to 10	1 to 10	1 to 10
Cc1cn2nc(-c3cc(F)c4nn([C@H]5CCN(C)C6(CC6)C5)cc4c3)cc(C)c2n1 [Compound 175, 6-[7-fluoro-2-[(7S)-4-methyl-4-azaspiro[2.5]octan-7-yl]indazol-5-yl]-2,8-dimethyl-imidazo[1,2-b]pyridazine]	0.1 to 1	< 0.1	< 0.1	< 0.1	< 0.1		0.1 to 1	0.1 to 1	< 0.1
Cc1cn2nc(-c3cc(F)c4nn(C5CCN(C(C)(C)C)CC5)cc4c3)cc(C)c2n1 [Compound 207, 2-(1-tert-butylpiperidin-4-yl)-5-{2,8-dimethylimidazo[1,2-b]pyridazin-6-yl}-7-fluoroindazole]		1 to 10	0.1 to 1	0.1 to 1	0.1 to 1	< 0.1	0.1 to 1	0.1 to 1	0.1 to 1
CCN1CCC(n2cc3cc(-c4cc(C)c5nc(C)cn5n4)cc(F)c3n2)CC12CCC2 (stereo not drawn) [Compound 198, 6-[2-(5-ethyl-5-azaspiro[3.5]nonan-8-yl)-7-fluoro-indazol-5-yl]-2,8-dimethyl-imidazo[1,2-b]pyridazine]	0.1 to 1	< 0.1	< 0.1	< 0.1	< 0.1	< 0.1	0.1 to 1	0.1 to 1	0.1 to 1
Cc1cn2nc(-c3cc(F)c4nn([C@@H]5CCN(C)C6(CC6)C5)cc4c3)cc(C)c2n1 [Compound 176, 6-[7-fluoro-2-[(7R)-4-methyl-4-azaspiro[2.5]octan-7-yl]indazol-5-yl]-2,8-dimethyl-imidazo[1,2-b]pyridazine]	0.1 to 1	0.1 to 1	< 0.1	< 0.1	< 0.1		0.1 to 1	0.1 to 1	1 to 10
Cc1cn2nc(-c3cc(F)c4nn([C@H]5CCN(C)C[C@@H]5F)cc4c3)cc(C)c2n1 [Compound 196, 6-[7-fluoro-2-[(3S,4S)-3-fluoro-1-methyl-4-piperidyl]indazol-5-yl]-2,8-dimethyl-imidazo[1,2-b]pyridazine]	> 10	> 10	1 to 10	1 to 10	1 to 10	0.1 to 1	> 10	> 10	1 to 10
Cc1cn2nc(-c3cc(C)c4nn(C5CCNC6(CC6)C5)cc4n3)cc(C)c2n1 (stereo not drawn) [Compound 208, 2-(4-azaspiro[2.5]octan-7-yl)-5-(2,8-dimethylimidazo[1,2-b]pyridazin-6-yl)-7-methyl-pyrazolo[4,3-b]pyridine]		> 10	> 10	> 10	> 10	1 to 10	> 10	> 10	> 10
Cc1cn2nc(-c3nc4cn(C5CCNCC5)nc4c(=O)[nH]3)cc(C)c2n1 [Compound 211, 5-(2,8-dimethylimidazo[1,2-b]pyridazin-6-yl)-2-(4-piperidyl)-6H-pyrazolo[4,3-d]pyrimidin-7-one]			< 0.1	< 0.1	0.1 to 1	< 0.1	0.1 to 1	0.1 to 1	0.1 to 1
